In US7455996B2, “Soybean raffinose synthase and a method for producing raffinose” (priority 1996, dated 2008):

Legend:
[1] = tested on: raffinose synthase; experiment: raffinose synthase activity with enzyme inhibitors or metal ions added; format: biochemical, cucumber; conditions: final concentration of 1 mM; for Remaining activity (%): with respect to activity when neither inhibitor nor metal ion was added
Procedure: (§1) The activity of the raffinose synthase was measured by quantitatively determining raffinose produced by the raffinose synthesis reaction by using HPLC (high-performance liquid chromatography). HPLC was performed by using Sugar Analysis System DX500 (CarboPac PA1column, pulsed amperometry detector (produced by DIONEX)).
(§2) For the raffinose synthesis reaction, to a reaction solution prepared to have a composition having the following final concentrations, 10 to 50 μl of a raffinose synthase solution was added to give a volume of 100 μl followed by performing the reaction at 32° C. for 60 minutes.
(§3) After performing the reaction as described above, the reaction was stopped by adding to the reaction solution, ethanol in a volume four times the volume of the reaction solution and heating the solution at 95° C. for 30 seconds. The obtained solution was centrifuged to obtain a supernatant and the supernatant was then dried up under a reduced pressure. After that, an obtained residue was dissolved in distilled water. Raffinose in the reaction product was quantitatively determined by using the sugar analysis system to estimate the raffinose synthase activity.
Various enzyme inhibitors or metal ions were added to the reaction solution of the purified raffinose synthase to give a final concentration of 1 mM respectively, and the raffinose synthase activity was measured in the same manner as described above.

[2] = tested on: raffinose synthase; experiment: inhibition of raffinose synthase activity by myo-inositol; format: biochemical, cucumber; conditions: myo-inositol added at various concentrations (FIG. 5)
Procedure: as §1, §2, §3
Investigation was made for inhibition by myo-inositol as the reaction product of the raffinose synthesis reaction. To the reaction solution, myo-inositol was added at various concentrations, and the raffinose synthase activity was measured. […]

[3] = stable pH of raffinose synthase; format: physicochemical, cucumber; conditions: fraction from anion exchange chromatography (2); incubated 4 hours at 4° C.
Procedure: The raffinose synthase fraction obtained by the anion exchange chromatography (2) described above was incubated for 4 hours at 4° C. in 50 mM Bis-Tris-HCl buffer (pH 5 to 8.0, containing 0.5 mM DTT) or 20 mM Tris-HCl buffer (pH 7 to 8.0, containing 0.5 mM DTT), and then the raffinose synthase activity was measured. […] The raffinose synthase activity was confirmed after the incubation under any of the incubation conditions. Especially, the enzyme was stable in a range of pH 5 to 7.5.

[4] = optimum reaction pH of raffinose synthase; format: biochemical, cucumber; conditions: pH 4 to 11, various buffers
Procedure: as §1, §2, §3
The raffinose synthase activity was measured under various pH conditions (pH 4 to 11) in accordance with the method for measuring the raffinose synthase activity described above. […]

[5] = stable temperature of raffinose synthase; format: physicochemical, cucumber; conditions: fraction from anion exchange chromatography (2); 60 minutes at 28° C. to 40° C., pH 7
Procedure: The raffinose synthase fraction obtained by the anion exchange chromatography (2) described above was incubated in 20 mM Tris-HCl buffer (pH 7, containing 0.5 mM DTT) for 60 minutes at 28° C., 32° C., 37° C., or 40° C., and then the raffinose synthase activity was measured.

[6] = optimum reaction temperature of raffinose synthase; format: biochemical, cucumber; conditions: measured at 28 to 52° C.
Procedure: as §1, §2, §3
The raffinose synthase activity was measured under various temperature conditions (28° C., 32° C., 36° C., 40° C., 44° C., 48° C., and 52° C.) in accordance with the method for measuring the raffinose synthase activity described above. […]

[7] = raffinose synthase activity of purification fractions (HPLC determination of raffinose); format: biochemical, cucumber; conditions: purified active fraction after hydroxyapatite rechromatography
Procedure: as §1, §2, §3
The amount of protein contained in the active fraction was about 200 μg. The total activity was 5700 nmol/hour, and the specific activity per protein was about 28 μmol/hour/mg. […]

Molecule	inhibiting effect on the enzyme activity [1]	Remaining activity (%) [1] [%]	further results
[Ca+2].[Cl-].[Cl-] [CaCl2]	scarcely observed	115	
[Cl][Cu][Cl] [CuCl2]	scarcely observed	101	
NC(=O)CI [Iodoacetoamide, Iodoacetamide]	remarkably inhibited	0	
[Cl-].[Cl-].[Mg+2] [MgCl2]	scarcely observed	96	
[Cl][Mn][Cl] [MnCl2]	exhibited the inhibiting effect	32	
CCN1C(=O)C=CC1=O [N-ethylmaleimide]	remarkably inhibited	40	
[Cl][Ni][Cl] [NiCl2]	exhibited the inhibiting effect	68	
[Cl-].[Cl-].[Zn+2] [ZnCl2]	exhibited the inhibiting effect	42	
O[C@H]1[C@H](O)[C@@H](O)[C@H](O)[C@@H](O)[C@H]1O [myo-inositol]			inhibition of the enzyme activity by myo-inositol [2]: inhibited
raffinose synthase: raffinose synthase purified from cucumber leaf vein tissues, amino acid sequence SEQ ID NO: 5 (protein, listed as Cucumis sativus) MAPSFKNGGSNVVSFDGLNDMSSPFAIDGSDFTVNGHSFLSDVPENIVASPSPYTSIDKSPVSVGCFVGFDASEPDSRHVVSIGKLKDIRFMSIFRFKVWWTTHWVGRNGGDLESETQIVILEKSDSGRPYVFLLPIVEGPFRTSIQPGDDDFVDVCVESGSSKVVDASFRSMLYLHAGDDPFALVKEAMKIVRTHLGTFRLLEEKTPPGIVDKFGWCTWDAFYLTVHPQGVIEGVRHLVDGGCPPGLVLIDDGWQSIGHDSDPITKEGMNQTVAGEQMPCRLLKFQENYKFRDYVNPKATGPRAGQKGMKAFIDELKGEFKTVEHVYVWHALCGYWGGLRPQVPGLPEARVIQPVLSPGLQMTMEDLAVDKIVLHKVGLVPPEKAEEMYEGLHAHLEKVGIDGVKIDVIHLLEMLCEDYGGRVDLAKAYYKAMTKSINKHFKGNGVIASMEHCNDFMFLGTEAISLGRVGDDFWCTDPSGDPNGTFWLQGCHMVHCANDSLWMGNFIHPDWDMFQSTHPCAAFHAASRAISGGPIYVSDSVGKHNFDLLKKLVLPDGSILRSEYYALPTRDCLFEDPLHNGETMLKIWNLNKFTGVIGAFNCQGGGWCRETRRNQCFSQYSKRVTSKTNPKDIEWHSGENPISIEGVKTFALYLYQAKKLILSKPSQDLDIALDPFEFELITVSPVTKLIQTSLHFAPIGLVNMLNTSGAIQSVDYDDDLSSVEIGVKGCGEMRVFASKKPRACRIDGEDVGFKYDQDQMVVVQVPWPIDSSSGGISVIEYLF			stable pH range [3]: 5 to 7.5 pH; optimum reaction pH [4]: 6 to 8 pH; pH range in which activity was exhibited [4]: 5 to 10 pH; activity after incubation relative to non-incubated control [5]: 80% to 100; optimum reaction temperature [6]: 35 to 40 °C; temperature range in which activity was exhibited [6]: 25 to 42 °C; specific activity per protein [7]: about 28 μmol/hour/mg
